Data from patent US4245106A, “Process for the preparation of 1-alkyl-3-aryl-4-pyrazolecarboxylates” (Monsanto Company, priority 1979, dated 1981).

Legend:
Assay type in all cases: in vivo
Details in all cases: *11.2 Kg/Ha; observed approximately 14 days after treatment
[1] = tested on: Lambsquarter; assay: pre-emergent herbicidal activity test
Description: (§1) Table II summarizes results of tests conducted to determine the pre-emergent as well as the post-emergent herbicidal activity of the compounds. The pre-emergent test was conducted as follows:
(§2) A good grade of top soil was placed in aluminum pans and compacted to a depth of three-eighths to one-half inch from the top of the pan. On the top of the soil was placed a predetermined number of seeds or vegetative propagules of various plant species. The soil required to level fill the pans after seeding or adding vegetative propagules was weighed into a pan. A known amount of the active ingredient applied in a solvent or as a wettable powder and the soil were thoroughly mixed, and used as a cover layer for prepared pans. After treatment the pans were moved into a greenhouse bench where they were watered from below as needed to give adequate moisture for germination and growth.
(§3) A herbicial rating code was used to signify the extent of phytotoxicity of each species. The rating are defined as follows: […]

[2] = tested on: Quackgrass; assay: pre-emergent herbicidal activity test
Description: as §1, §2, §3

[3] = tested on: Bromus tectorum; assay: pre-emergent herbicidal activity test
Description: as §1, §2, §3

[4] = tested on: Velvetleaf; assay: pre-emergent herbicidal activity test
Description: as §1, §2, §3

[5] = tested on: Canada Thistle; assay: pre-emergent herbicidal activity test
Description: as §1, §2, §3

[6] = tested on: Johnsongrass; assay: pre-emergent herbicidal activity test
Description: as §1, §2, §3

[7] = tested on: Smartweed; assay: pre-emergent herbicidal activity test
Description: as §1, §2, §3

[8] = tested on: Cocklebur; assay: pre-emergent herbicidal activity test
Description: as §1, §2, §3

[9] = tested on: Morningglory; assay: pre-emergent herbicidal activity test
Description: as §1, §2, §3

[10] = tested on: Nutsedge; assay: pre-emergent herbicidal activity test
Description: as §1, §2, §3

[11] = tested on: Barnyard grass; assay: pre-emergent herbicidal activity test
Description: as §1, §2, §3

[12] = tested on: Lambsquarter; assay: post-emergent herbicidal activity test
Description: (§4) The post-emergent tests were conducted as follows. The active ingredients are applied in spray form to two or three-week old specimens of various plant species. The spray, a solution or wettable powder suspension containing the appropriate rate of active ingredient to give the desired test rate and a surfactant, is applied to the plants. The treated plants are placed in a greenhouse and unless otherwise noted approximately four weeks later the effects are observed and recorded.

[13] = tested on: Quackgrass; assay: post-emergent herbicidal activity test
Description: as §4

[14] = tested on: Bromus tectorum; assay: post-emergent herbicidal activity test
Description: as §4

[15] = tested on: Velvetleaf; assay: post-emergent herbicidal activity test
Description: as §4

[16] = tested on: Canada Thistle; assay: post-emergent herbicidal activity test
Description: as §4

[17] = tested on: Johnsongrass; assay: post-emergent herbicidal activity test
Description: as §4

[18] = tested on: Smartweed; assay: post-emergent herbicidal activity test
Description: as §4

[19] = tested on: Cocklebur; assay: post-emergent herbicidal activity test
Description: as §4

[20] = tested on: Morningglory; assay: post-emergent herbicidal activity test
Description: as §4

[21] = tested on: Nutsedge; assay: post-emergent herbicidal activity test
Description: as §4

[22] = tested on: Barnyard grass; assay: post-emergent herbicidal activity test
Description: as §4
Note: ranges in brackets are in %.

Row | SMILES | Pre-Emergent herbicidal rating, E Lambsquarter [1] | Pre-Emergent herbicidal rating, H Quackgrass [2] | Pre-Emergent herbicidal rating, J Bromus tectorum [3] | Pre-Emergent herbicidal rating, C Velvetleaf [4] | Pre-Emergent herbicidal rating, A Canada Thistle [5] | Pre-Emergent herbicidal rating, I Johnsongrass [6] | Pre-Emergent herbicidal rating, F Smartweed [7] | Pre-Emergent herbicidal rating, B Cocklebur [8] | Pre-Emergent herbicidal rating, D Morningglory [9] | Pre-Emergent herbicidal rating, G Nutsedge [10] | Pre-Emergent herbicidal rating, K Barnyard grass [11] | Post-Emergent herbicidal rating, E Lambsquarter [12] | Post-Emergent herbicidal rating, H Quackgrass [13] | Post-Emergent herbicidal rating, J Bromus tectorum [14] | Post-Emergent herbicidal rating, C Velvetleaf [15] | Post-Emergent herbicidal rating, A Canada Thistle [16] | Post-Emergent herbicidal rating, I Johnsongrass [17] | Post-Emergent herbicidal rating, F Smartweed [18] | Post-Emergent herbicidal rating, B Cocklebur [19] | Post-Emergent herbicidal rating, D Morningglory [20] | further results
1 | C=C(Cl)COC(=O)c1cn(C)nc1-c1cccc(C(F)(F)F)c1 [Example 19] | 3 (75-100) | 1 (25-49) | 1 (25-49) | 1 (25-49) | 1 (25-49) | 1 (25-49) | 2 (50-74) | 0 (0-24) | 1 (25-49) | 1 (25-49) | 2 (50-74) | 1 (25-49) | 0 (0-24) | 0 (0-24) | 1 (25-49) | 1 (25-49) | 1 (25-49) | 1 (25-49) | 1 (25-49) | 1 (25-49) | Post-Emergent herbicidal rating, G Nutsedge [21]: 0 (0-24); Post-Emergent herbicidal rating, K Barnyard grass [22]: 1 (25-49)
2 | CCCCCCOC(=O)c1cn(C)nc1-c1cccc(C(F)(F)F)c1 [Example 21] | 0 (0-24) | 0 (0-24) | 0 (0-24) | 0 (0-24) | 0 (0-24) | 0 (0-24) | 0 (0-24) | 0 (0-24) | 0 (0-24) | 0 (0-24) | 1 (25-49) | 2 (50-74) | 0 (0-24) | 0 (0-24) | 1 (25-49) | 1 (25-49) | 1 (25-49) | 1 (25-49) | 1 (25-49) | 1 (25-49) | Post-Emergent herbicidal rating, G Nutsedge [21]: 0 (0-24); Post-Emergent herbicidal rating, K Barnyard grass [22]: 1 (25-49)
3 | CCSCCOC(=O)c1cn(C)nc1-c1cccc(C(F)(F)F)c1 [Example 23] | 3 (75-100) | 0 (0-24) | 1 (25-49) | 1 (25-49) | 0 (0-24) | 0 (0-24) | 1 (25-49) | 0 (0-24) | 1 (25-49) | 0 (0-24) | 1 (25-49) | 2 (50-74) | 1 (25-49) | 0 (0-24) | 1 (25-49) | 1 (25-49) | 0 (0-24) | 1 (25-49) | 1 (25-49) | 1 (25-49) | Post-Emergent herbicidal rating, G Nutsedge [21]: 0 (0-24); Post-Emergent herbicidal rating, K Barnyard grass [22]: 1 (25-49)
